Data on 96 compounds can be found in PubChem BioAssay AID1549 (Sanford-Burnham Center for Chemical Genomics, 2009).

The structures appear in SMILES notation. Calls of active or inactive are those of the source. The rule behind the calls is not given here.

The target in this test is Influenza A virus M2 proton channel (A/TW/4845/1999 H1N1). As to the kind of experiment: NMR binding screen, influenza A virus M2 proton channel, Kd (AID 1549). Particulars: M2 protein.
In the case of `C=CCn1c(-c2ccc(O)cc2)n[nH]c1=S`, the Kd is > 4 mM (inactive).
The value for `c1cncc(C2CCCCN2)c1` (stereo unspecified) was > 4 mM (inactive); that for `COc1ccc(-c2oc3c(CC=C(C)C)c(O[C@@H]4O[C@H](CO)[C@@H](O)[C@H](O)[C@H]4O)cc(O)c3c(=O)c2O[C@@H]2O[C@@H](C)[C@H](O)[C@@H](O)[C@H]2O)cc1` was > 4 mM (inactive); that for `O=C(Nc1ccon1)c1csc2ccccc12` was > 4 mM (inactive).
In the case of `Cc1nn2c(nc1=O)SCC(c1ccccc1)=N2` it was > 4 mM (inactive).
The value for `CC1=NN2C(=N)/C(=C\c3cccs3)C(=O)N=C2S1` was > 4 mM (inactive); that for `Nc1cccc(F)c1-c1ncon1` was > 4 mM (inactive); that for `O=C(O)c1cc(=O)c2cccc(O)c2[nH]1` was > 4 mM (inactive).
With `O=c1cc(-c2ccccc2)oc2cc(O)c(O)c(O)c12`, the Kd is > 4 mM (inactive).
The value for `COc1cc([C@@H]2c3cc4c(cc3C(OC3O[C@@H]5COC(C)O[C@H]5[C@H](O)[C@H]3O)C3COC(=O)[C@@H]32)OCO4)cc(OC)c1O` (stereo partly specified) was > 4 mM (inactive); that for `CC(C)c1ccc2c(c1)CCC1C(C)(C(N)=O)CCCC21C` (stereo unspecified) was > 4 mM (inactive).
In the case of `NC(=O)CN1CC(=O)NC(=O)C1` it was > 4 mM (inactive); in that of `Cn1nc(C(=O)Nc2cccnc2)cc1Cl`, > 4 mM (inactive); in that of `Cc1nnsc1C(=O)O`, > 4 mM (inactive).
For the compound `CC1(C)C2CC[C@]3(C)C(C(=O)C=C4[C@@H]5C[C@@](C)(C(=O)O)CC[C@]5(C)CC[C@]43C)[C@@]2(C)CC[C@@H]1O` (stereo partly specified), the Kd was > 4 mM (inactive).
The value for `CC(O)C(=O)N/N=C/c1ccccc1` (stereo unspecified) was > 4 mM (inactive); that for `Cc1nn2c(=O)/c(=C/c3cccc(F)c3)sc2nc1=O` was > 4 mM (inactive); that for `COC(=O)C[C@@H]1C2(C)C(=O)[C@@H](CC3C2CC[C@]2(C)C3CC(=O)O[C@H]2c2ccoc2)[C@H](OC(C)=O)C1(C)C` (stereo partly specified) was > 4 mM (inactive).
In the case of `Cc1nnc(N2CCc3ccccc3C2)[nH]c1=O` it was > 4 mM (inactive); in that of `Cc1nn2c(=O)c(NC(=O)c3ccccc3)cnc2s1`, > 4 mM (inactive); in that of `C[C@@H]1OC(O[C@H]2[C@H](OC(=O)[C@]34CCC(C)(C)CC3C3=CCC5[C@@]6(C)CC[C@H](OC7O[C@@H](C)[C@H](O[C@@H]8OC[C@@H](O)[C@H](O)[C@H]8O)[C@@H](O)[C@H]7O)C(C)(C)C6CC[C@@]5(C)[C@]3(C)CC4O)OC[C@H](O)[C@H]2O)[C@H](O)[C@H](O)[C@H]1O[C@@H]1O[C@H](CO)[C@@H](O)[C@H](O)[C@H]1O` (stereo partly specified), > 4 mM (inactive).
The value for `Nc1ccc2[nH]ccc2c1` was > 4 mM (inactive); that for `COc1cc(-c2nnc(NC(C)=O)o2)cc(OC)c1OC` was > 4 mM (inactive); that for `CC(=O)O[C@@H]1CC2C(C)(C)CCC(=O)[C@]2(C)C2CC[C@@]3(C)[C@H](c4ccoc4)OC(=O)C4OC43[C@@]21C` (stereo partly specified) was > 4 mM (inactive).
For the compound `Cc1sc2nc(SCC(=O)N(C)C)[nH]c(=O)c2c1C`, the Kd was > 4 mM (inactive).
As to `COc1ccc(C(=O)/C=C/c2ccccc2)cc1`, the Kd is > 4 mM (inactive).
In the case of `COc1ccc2c(c1)OC[C@@H](Cc1ccc(OC)c(OC)c1)[C@@H]2O` it was > 4 mM (inactive).
Consider `NC(=O)c1cc(N)cc(C(N)=O)c1`, for which the Kd is > 4 mM (inactive).
In the case of `CC(=O)c1ccc(N2C(=O)C(C(C)C)NC2=S)cc1` (stereo unspecified) it was > 4 mM (inactive).
In the case of `COc1ncnc(N)c1[N+](=O)[O-]` it was > 4 mM (inactive); in that of `O=C(O)C1CCCN1Cc1c[nH]c2ccccc12` (stereo unspecified), > 4 mM (inactive).
In the case of `CN(C)S(=O)(=O)Nc1ccc(Br)cc1F` it was > 4 mM (inactive); in that of `OCc1ccc(-n2cccn2)cc1`, > 4 mM (inactive).
In the case of `Cc1nnc(SCc2ccon2)n1-c1ccccc1`, the Kd was > 4 mM (inactive).
The value for `Cc1nc2c(=O)[nH]c3ccccc3c2o1` was > 4 mM (inactive).
In the case of `COC(=O)CCSCC(=O)Nc1nnc(C)s1` it was > 4 mM (inactive).
In the case of `CC(=O)NC(=S)Nc1cccc(C(=O)O)c1C` it was > 4 mM (inactive).
Turning to `C=C1CCC(=O)C(C)CCC2C1CC2(C)C` (stereo unspecified), the Kd was > 4 mM (inactive).
In the case of `O=C(O)CCNc1n[nH]c(=O)[nH]c1=O` it was > 4 mM (inactive); in that of `C[C@@H]1CC[C@@]2(OC1)OC1CC3C4CC=C5C[C@@H](O)CC[C@]5(C)C4CC[C@]3(C)C1[C@@H]2C` (stereo partly specified), > 4 mM (inactive); in that of `COc1ccccc1-c1noc(-c2ccncc2)n1`, > 4 mM (inactive).
Regarding `O=C(NC1=NCCS1)c1csc2ccccc12`, the Kd is > 4 mM (inactive).
The value for `COc1cccc(S(=O)(=O)Nc2cccnc2)c1` was > 4 mM (inactive).
The value for `C/C=C/C=N/NC(=O)c1ccc(=O)n(C)c1` was > 4 mM (inactive); that for `COc1ccccc1/C=C/CN1CCOCC1` was > 4 mM (inactive); that for `CC1(C)NC(=O)N(CCOc2ccc3c(c2)CCC3)C1=O` was > 4 mM (inactive).
The value for `COc1cc(S(=O)(=O)Nc2cccnc2)ccc1F` was > 4 mM (inactive); that for `O=C1CN(C(=O)c2ccccc2)c2ccccc2N1` was > 4 mM (inactive); that for `O=[N+]([O-])c1ccc2c(c1)N([O-])C1(CCCCC1)[N+]2=O` was > 4 mM (inactive).
As to `CC(=O)n1nc(-c2cccnc2)nc1N`, the Kd was > 4 mM (inactive).
The value for `C=CCCCCCCCCCCCC(O)CC(O)COC(C)=O` (stereo unspecified) was > 4 mM (inactive); that for `CC(=O)O[C@H]1C[C@@H](OC(C)=O)C(C)(C)C2C[C@@H](OC(C)=O)[C@]3(C)C(CC[C@@]4(C)[C@H](c5ccoc5)C(=O)[C@H]5O[C@]543)[C@]21C` (stereo partly specified) was > 4 mM (inactive); that for `Nc1nc(O)c(C2=c3cc(Cl)ccc3=NC2=O)s1` was > 4 mM (inactive).
The value for `CCn1cnc2cc([N+](=O)[O-])ccc2c1=O` was > 4 mM (inactive); that for `O=C1NC(=S)N/C1=C\c1cccc([N+](=O)[O-])c1` was > 4 mM (inactive); that for `CNC(=O)Nc1ccc(C(=O)NC)cc1` was > 4 mM (inactive).
With `NC(=S)CN1CCCC1=O`, the Kd was > 4 mM (inactive).
In the case of `CCc1cc(=O)[nH]c(SCC(=O)NCCOC)n1` it was > 4 mM (inactive); in that of `O=C(Nc1nc2ccccc2s1)c1ccc(=O)[nH]n1`, > 4 mM (inactive).
The value for `Cn1nnc2cc(C(=O)NC3=NCCS3)ccc21` was > 4 mM (inactive); that for `O=C(CC1Nc2ccccc2NC1=O)Nc1ccc(O)cc1` (stereo unspecified) was > 4 mM (inactive).
On to `O=C1NCC(=O)N2CCc3ccccc3C12` (stereo unspecified), for which the Kd is > 4 mM (inactive).
For the compound `COC(=O)c1cccc2cc[nH]c12`, the Kd is > 4 mM (inactive).
The value for `NC(CSCSCC(N)C(=O)O)C(=O)O` (stereo unspecified) was > 4 mM (inactive); that for `Nc1ccc2[nH]ncc2c1` was > 4 mM (inactive).
The value for `O=C(NCc1ccncc1)c1cccc(F)c1` was > 4 mM (inactive); that for `CS(C)=C1C(=O)NC(=O)N(Cc2ccc(F)cc2)C1=O` was > 4 mM (inactive); that for `COc1cc2cc[n+]3cc4c(OC)c(OC)ccc4cc3c2cc1OC` was > 4 mM (inactive).
The value for `O=C(O)c1cccc(O)c1O` was > 4 mM (inactive).
For the compound `O=C(NCc1n[nH]c(=O)c2ccccc12)C1CC1`, the Kd was > 4 mM (inactive).
The value for `O=C(O)CS(=O)(=O)c1ccccc1[N+](=O)[O-]` was > 4 mM (inactive).
The value for `O=C(NCc1cccs1)c1nc2ncccn2n1` was > 4 mM (inactive); that for `CCNC(=O)CC1Nc2ccccc2NC1=O` (stereo unspecified) was > 4 mM (inactive).
In the case of `COc1ccc(S(N)(=O)=O)cc1` it was > 4 mM (inactive).
With `N[C@@H](C(=O)O)[C@@H](O)[C@H](O)[C@H](O)CO`, the Kd was > 4 mM (inactive).
The value for `CC(=O)Nc1cc(C(F)(F)F)ccc1N1CCOCC1` was > 4 mM (inactive); that for `Cc1ccc(NC(=O)/C=C2\SC(=O)NC2=O)cc1` was > 4 mM (inactive); that for `Cn1nnc2cc(C(=O)O)ccc21` was > 4 mM (inactive).
In the case of `Cc1onc(-c2c(F)cccc2Cl)c1C(N)=O` it was > 4 mM (inactive); in that of `O=C(O)C1CSC(c2ccc(Cl)cc2)N1` (stereo unspecified), > 4 mM (inactive); in that of `C[C@@H]1C(=O)OC2[C@H](O)C34[C@@H]5OC(=O)[C@@]3(O[C@@H]3OC(=O)[C@H](O)[C@@]34[C@H](C(C)(C)C)[C@H]5O)[C@]21O` (stereo partly specified), > 4 mM (inactive).
In the case of `OC1CC(c2ccccc2)NC2(CCCC2)C1` (stereo unspecified) it was > 4 mM (inactive); in that of `CCSc1nc2ccccc2n1CC(N)=O`, > 4 mM (inactive).
Regarding `Cc1ccc(=O)[nH]c1`, the Kd is > 4 mM (inactive).
In the case of `O=C1CSC(=NC(=O)c2ccccc2)N1` it was > 4 mM (inactive).
The value for `O=C1C2CCCCC2C(=O)N1Cc1cccnc1` (stereo unspecified) was > 4 mM (inactive).
In the case of `CCOC(=O)c1cc(C)n(-n2cnnc2)c1C` it was > 4 mM (inactive); in that of `CC(C)C(=O)NCC(c1ccco1)N1CCOCC1` (stereo unspecified), > 4 mM (inactive); in that of `CC1O[C@@H](Oc2c(-c3ccc(O)c(O)c3)oc3cc(O)cc(O)c3c2=O)[C@H](O)[C@H](O)[C@H]1O` (stereo partly specified), > 4 mM (inactive).
Regarding `CSc1ccc(/C=N/n2c(C)nnc2C)cc1`, the Kd is > 4 mM (inactive).
The value for `C=CCc1ccc2c(c1)OCO2` was > 4 mM (inactive).
As to `NC(=O)CSCc1c(Cl)cccc1Cl`, the Kd is > 4 mM (inactive).
In the case of `NC(CC(=O)O)c1ccccc1` (stereo unspecified) it was > 4 mM (inactive); in that of `CC(C)CCn1cnc2c1c(=O)n(C)c(=O)n2C`, > 4 mM (inactive).
In the case of `CCN1CCN(CCCNc2ncnc3nc[nH]c23)CC1`, the Kd was > 4 mM (inactive).
The value for `Cc1nn(C)c2sc(C(=O)O)cc12` was > 4 mM (inactive).
